Assay results from patent US20200325543A1, “DIAGNOSTIC METHOD” (TOLREMO THERAPEUTICS AG, priority 2017, published 2020).
Where “and” joins values, the source holds several entries; their conditions need not be identical. Equal values may be shown once. Where a name gives a salt, the structure may show the parent alone. Read-outs that look alike come from different tables or passages of the source.

Columns and labels:
SOX2 [1] = assay: Screen of a library of FDA-approved drugs for SOX2 antibody staining in A375 cells treated with PLX4720 and AZD6244; conditions: for cor. loess: normalized and geometry-corrected (loess) signal; for norm: signal after plate normalization
SOX2 [2] = assay: SOX2 levels by Western blot in A375-P cells; format: cell-based; conditions: 1 μM PLX4720, 0.5 μM AZD6244 or both, indicated times, versus 0.01% DMSO
Method: (A) A375-P cells were treated with PLX4720 (BRAFi) or DMSO for 6 h, RNA was isolated and RNA-Seq was performed. […] Differentially expressed genes (DEGs) selected for pathway analysis are represented by red and blue dots depending on the direction of the transcriptional change (red genes are induced upon PLX4720, blue genes are repressed upon PLX4720). (B) Bar graphs showing the five top pathways with significant enrichment of the analyzed DEGs. Longer bars indicate stronger significance. (C) Top deregulated genes upon treatment with PLX4720 (left column). Top genes induced and repressed by PLX4720 are shown in separate lists. (D) Indicated cell lines were treated with 1 μM PLX4720 or 0.01% DMSO (0 h) for the indicated times and the expressional changes of selected genes associated with stemness/EMT were confirmed by qPCR. […] As key player in the sternness signature, SOX2 levels were assessed. […] (F) A375-P cells were treated with 1 μM PLX4720, 0.5 μM AZD6244 (MEK1/2 inhibitor) or 0.01% DMSO for the indicated times and SOX2 levels were assessed by Western blot analysis. […] (G) A375-P cells were treated with 1 μM PLX4720 (BRAFi), 0.5 μM AZD6244 (MEKi), a combination of both drugs or 0.01% DMSO for the indicated times and SOX2 levels were assessed by Western blot analysis. […] For all Western blots, individual time points were assessed in at least two independent experiments. […]

[3] = system: genes associated with stemness/EMT; assay: RNA-Seq / qPCR of genes associated with stemness/EMT in melanoma cells; format: cell-based; conditions: A375-P cells, 1 μM PLX4720, 0.5 μM AZD6244 or both, 24 h, versus 0.01% DMSO
[4] = A375 cells, 5 uM test drug with 1 uM PLX4720 and 0.5 uM AZD6244, 24 h
[5] = A375 cells, 5 uM test drug with 1 uM PLX4720 and 0.5 uM AZD6244, 24 h, raw signal (ratio of FL2 SOX2 antibody and FL3 nuclear staining), screen run in duplicate
[6] = Z-test against negative controls (DMSO), single dose 5 uM

Row | Compound | cor. loess (SOX2 [1]; [4]) | raw (SOX2 [1]; [5]) | norm (SOX2 [1]; [4]) | z (SOX2 [1]; [6]) | raw (SOX2 [1]) | z (SOX2 [1]) | SOX2 levels (Western blot) (SOX2 [2]) | expressional changes of selected genes associated with stemness/EMT (qPCR) [3]
1 | CC(=O)O[C@H]1C[C@H](O[C@H]2[C@@H](O)C[C@H](O[C@H]3[C@@H](O)C[C@H](O[C@H]4CC[C@@]5(C)[C@H](CC[C@@H]6[C@@H]5C[C@@H](O)[C@]5(C)[C@@H](C7=CC(=O)OC7)CC[C@]65O)C4)O[C@@H]3C)O[C@@H]2C)O[C@H](C)[C@H]1O[C@@H]1O[C@H](CO)[C@@H](O)[C@H](O)[C@H]1O [LANATOSIDE C] | 1.074 and 1.059 | 0.9723 and 0.963 | 0.4949 |  |  |  |  | 
2 | CC1(C)O[C@@H]2C[C@H]3[C@@H]4CCC5=CC(=O)CC[C@]5(C)[C@@]4(F)[C@@H](O)C[C@]3(C)[C@]2(C(=O)CCl)O1 [HALCINONIDE] | 0.2632 | 0.9853 | 0.2586 | 3.581 |  |  |  | 
3 | CCC(=O)O[C@]1(C(=O)CCl)[C@@H](C)C[C@H]2[C@@H]3C[C@H](F)C4=CC(=O)C=C[C@]4(C)[C@@]3(F)[C@@H](O)C[C@@]21C [Halobetasol Propionate] | 0.4055 | 0.9809 | 0.3998 | 4.335 |  |  |  | 
4 | Nc1cc(F)ccc1NC(=O)c1ccc(CNC(=O)/C=C/c2cccnc2)cc1 [Chidamide] | 1.067 | 0.9618 | 1.02 | 7.547 |  |  |  | 
5 | Cc1ccc(C(=O)Nc2ccc(CN3CCN(C)CC3)c(C(F)(F)F)c2)cc1C#Cc1cnc2cccnn12 [Ponatinib (AP24534), Ponatinib] | 0.6841 | 0.9701 | 0.7518 | 5.338 |  |  |  | 
6 | [O-][n+]1ccccc1[S-].[O-][n+]1ccccc1[S-].[Zn+2] [PYRITHIONE ZINC] |  |  |  |  | 0.8268 and 0.898 | 15.67 and 26.13 |  | 
7 | CCC(=O)O[C@]1(C(=O)SCF)[C@H](C)C[C@H]2[C@@H]3C[C@H](F)C4=CC(=O)C=C[C@]4(C)[C@@]3(F)[C@@H](O)C[C@@]21C [FLUTICASONE PROPIONATE] | 0.6875 | 0.9704 | 0.713 | 4.067 |  |  |  | 
8 | CC1(C)O[C@@H]2C[C@H]3[C@@H]4C[C@H](F)C5=CC(=O)C=C[C@]5(C)[C@H]4[C@@H](O)C[C@]3(C)[C@]2(C(=O)CO)O1 [FLUNISOLIDE] | 0.6279 | 0.9737 | 0.6807 | 5.388 |  |  |  | 
9 | O=C(Nc1ccc([N+](=O)[O-])cc1Cl)c1cc(Cl)ccc1O [NICLOSAMIDE] | 0.7224 | 0.97 | 0.7648 | 9.828 |  |  |  | 
10 | Aprotinin | 1.14 | 0.9662 | 0.9994 | 4.093 |  |  |  | 
11 | CCCC(=O)O[C@]1(C(=O)COC(C)=O)CC[C@H]2[C@@H]3C[C@H](F)C4=CC(=O)C=C[C@]4(C)[C@@]3(F)[C@@H](O)C[C@@]21C [Difluprednate] | 0.4529 | 0.9801 | 0.4293 | 4.842 |  |  |  | 
12 | OC1(c2ccc(Cl)c(C(F)(F)F)c2)CCN(CCCC(c2ccc(F)cc2)c2ccc(F)cc2)CC1 [PENFLURIDOL] | 2.248 | 0.9179 | 2.491 | 30.59 |  |  |  | 
13 | Cc1cc(Nc2ncc(Cl)c(Nc3ccccc3S(=O)(=O)C(C)C)n2)c(OC(C)C)cc1C1CCNCC1 [LDK378] | 3.065 | 0.8857 | 3.411 | 23.92 |  |  |  | 
14 | Cn1cnc2c(F)c(Nc3ccc(Br)cc3Cl)c(C(=O)NOCCO)cc21 [AZD6244] |  |  |  |  |  |  | induce similar SOX2 levels | comparable effects on transcript levels
15 | CN(C)Cc1ccc(S(=O)(=O)n2ccc(/C=C/C(=O)NO)c2)cc1 [Resminostat] | 0.8 | 0.9656 | 0.8939 | 6.242 |  |  |  | 
16 | Cc1oncc1C(=O)Nc1ccc(C(F)(F)F)cc1 [LEFLUNOMIDE] | 0.3194 | 0.9816 | 0.3831 | 4.346 |  |  |  | 
17 | COC(=O)c1ccc2c(c1)NC(=O)/C2=C(\Nc1ccc(N(C)C(=O)CN2CCN(C)CC2)cc1)c1ccccc1 [Nintedanib (BIBF 1120), Nintedanib] | 0.5485 | 0.9744 | 0.6171 | 4.28 |  |  |  | 
18 | CCNC1(C(N)=O)CCN(c2ncnc3c2nc(-c2ccccc2Cl)n3-c2ccc(Cl)cc2)CC1 [Otenabant (CP-945598) HCl] | 1.069 | 0.9665 | 0.8357 | 4.116 |  |  |  | 
19 | CC1(C)O[C@@H]2C[C@H]3[C@@H]4C[C@H](F)C5=CC(=O)C=C[C@]5(C)[C@@]4(F)[C@@H](O)C[C@]3(C)[C@]2(C(=O)CO)O1 [FLUOCINOLONE ACETONIDE] | 0.4202 | 0.9791 | 0.434 | 3.463 |  |  |  | 
20 | CCOC(=O)O[C@]1(C(=O)COC(=O)CC)CC[C@H]2[C@@H]3CCC4=CC(=O)C=C[C@]4(C)[C@H]3[C@@H](O)C[C@@]21C [PREDNICARBATE] | 0.3992 | 0.9782 | 0.4403 | 4.425 |  |  |  | 
21 | C[C@]12C=CC(=O)C=C1CC[C@H]1[C@@H]3C[C@@H](O)[C@](O)(C(=O)CO)[C@@]3(C)C[C@H](O)[C@@]12F [TRIAMCINOLONE] | 0.4006 | 0.9821 | 0.3941 | 3.438 |  |  |  | 
22 | O=c1[nH]c(=O)n([C@H]2C[C@H](O)[C@@H](CO)O2)cc1I [IDOXURIDINE] | 0.715 | 0.9726 | 0.7167 | 6.136 |  |  |  | 
23 | CCCCN1CCCCC1C(=O)Nc1c(C)cccc1C (centres unmarked) [BUPIVACAINE HYDROCHLORIDE] | 0.2934 | 0.9835 | 0.3196 | 3.991 |  |  |  | 
24 | CCCCCCc1ccc(O)cc1O.Nc1c2ccccc2nc2ccccc12 [ACRISORCIN] |  | 0.9675 and 0.9751 | 0.7754 and 0.5959 | 4.872 and 7.943 |  |  |  | 
25 | COC(=O)Nc1nc2ccc(Sc3ccccc3)cc2[nH]1 [FENBENDAZOLE] | 0.4709 | 0.9808 | 0.4377 | 4.041 |  |  |  | 
26 | C1CCC(C(CC2CCCCN2)C2CCCCC2)CC1 (centres unmarked) [PERHEXILINE MALEATE] | 0.3464 | 0.9786 | 0.4809 | 4.713 |  |  |  | 
27 | COc1cc([C@@H]2c3cc4c(cc3[C@@H](O[C@@H]3O[C@@H]5CO[C@@H](c6cccs6)O[C@H]5[C@H](O)[C@H]3O)[C@H]3COC(=O)[C@H]23)OCO4)cc(OC)c1O [TENIPOSIDE] | 0.6446 | 0.9667 | 0.8759 | 8.769 |  |  |  | 
28 | COc1ccc(/C=C\c2cc(OC)c(OC)c(OC)c2)cc1OP(=O)([O-])[O-].[Na+].[Na+] [Fosbretabulin (Combretastatin A4 Phosphate (CA4P)) Disodium] | 0.3981 | 0.9814 | 0.3844 | 4.256 |  |  |  | 
29 | C[C@H]1[C@H](OC(=O)CCC(=O)O)O[C@@H]2O[C@@]3(C)CC[C@H]4[C@H](C)CC[C@@H]1[C@@]24OO3 [ARTESUNATE] | 0.3246 | 0.9835 | 0.3139 | 3.471 |  |  |  | 
